Results as given in US20100063080A1, “CXCR2 inhibitors” (priority 2006, published 2010).

Target: T1, human CXCR2 receptor (Homo sapiens, UniProt P25025)
T1 construct: purchased Biosignal Packard Inc; host or cells: CHO-K1 membranes
T1 sequence (P25025 1-360): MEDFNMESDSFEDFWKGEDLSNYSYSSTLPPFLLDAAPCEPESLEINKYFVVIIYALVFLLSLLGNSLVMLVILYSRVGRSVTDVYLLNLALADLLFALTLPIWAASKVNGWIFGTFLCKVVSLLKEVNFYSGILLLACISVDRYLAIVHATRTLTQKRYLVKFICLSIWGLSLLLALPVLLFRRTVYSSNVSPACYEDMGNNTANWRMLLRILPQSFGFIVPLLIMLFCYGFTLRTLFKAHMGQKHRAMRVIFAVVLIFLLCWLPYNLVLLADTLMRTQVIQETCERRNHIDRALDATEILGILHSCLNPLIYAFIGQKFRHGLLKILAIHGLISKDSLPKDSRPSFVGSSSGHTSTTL
Experiment: [35S]-GTPγS binding assay for human CXCR2 receptor using SPA technology
Format: biochemical
Settings: CHO-K1 membranes expressing human CXCR2; 100 nM IL-8; read-out: IC50 in the [35S]-GPTγS binding assay
From the text: [^35S]-GTPγS Binding Assay for Human CXCR2 Receptor using SPA Technology
[^35S]-GTPγS (with specific activity 1082 Ci/mmol) and wheat germ agglutinin poly vinyl toluene scintillation proximity beads are purchased from Amersham Pharmacia Biotech. The Chinese hamster ovary cell (CHO-K1) membranes expressing human CXCR2 receptors are purchased from Biosignal Packard Inc. All other chemicals are of analytical grade. White non-binding surface 96 well Optiplate™ microplates are obtained from Packard. Recombinant human IL-8 is synthesised, cloned and expressed in Escherichia coli as described previously (Lindley I, et al., Proc. Natl. Acad. Sci., 1988, 85(23):9199). The assay is performed in duplicate in 96 well Optiplate™ microplate in a final volume of 250 μl per well. Compounds are diluted in DMSO (0.5% final concentration) and incubated in 20 mM HEPES buffer pH 7.4 containing 10 mM MgCl2, 100 mM NaCl, 1 mM EDTA plus 100 nM IL-8, 50 μM GDP and […] [^35S]GTPγS per well. SPA beads (1 mg/well final concentration) were pre-mixed with the membranes (10 μg/well final concentration) in assay buffer: 20 mM HEPES buffer pH 7.4 containing 10 mM MgCl2, 100 mM NaCl, 1 mM EDTA. […] The plate is centrifuged and read on Packard TopCount™ scintillation counter, program [^35S dpm] for 1 min/well. Data are expressed as the % response to 100 nM IL-8 minus basal.

IC50	SMILES
820 nM	CCOC(=O)CNC(=O)[C@@H]1C[C@H]1c1nc(SCc2cccc(F)c2F)nc(O)c1C#N (relative stereo) [Example 49, Trans-({2-[5-Cyano-2-(2,3-difluoro-benzylsulfanyl)-6-hydroxy-pyrimidin-4-yl]-cyclopropanecarbonyl}-amino)-acetic acid ethyl ester]
230 nM	CCC1CCCN1C(=O)C1CC1c1nc(SCc2cccc(F)c2F)nc(O)c1C#N (centres unmarked) [Example 43, 2-(2,3-Difluoro-benzylsulfanyl)-4-[2-(2-ethyl-pyrrolidine-1carbonyl)-cyclopropyl]-6-hydroxypyrimidine-5-carbonitrile]
